{"source": "ChEMBL document CHEMBL1142081", "about": "“Evaluation of the in vivo activity of tribendimidine against Schistosoma mansoni, Fasciola hepatica, Clonorchis sinensis, and Opisthorchis viverrini” (2007)", "key": {"[1]": {"assay": "Reduction of worm burden in Clonorchis sinensis infected Wistar rat at 150 mg/kg, po relative to control", "assay_type": "functional", "parameters": "scale not given: the % may be the effect or the level left"}, "[2]": {"assay": "Reduction of worm burden in Clonorchis sinensis infected Wistar rat at 75 mg/kg, po relative to control", "assay_type": "functional", "parameters": "scale not given: the % may be the effect or the level left"}, "[3]": {"assay": "Reduction of worm burden in Opisthorchis viverrini infected Syrian Gold hamster at 400 mg/kg, po relative to control", "assay_type": "functional", "parameters": "scale not given: the % may be the effect or the level left"}, "[4]": {"assay": "Reduction of worm burden in Opisthorchis viverrini infected Syrian Gold hamster at 200 mg/kg, po relative to control", "assay_type": "functional", "parameters": "scale not given: the % may be the effect or the level left"}, "Fasciola hepatica [5]": {"tested_on": "Fasciola hepatica", "assay": "Reduction of worm burden in Fasciola hepatica infected Wistar rat at 800 mg/kg, po relative to control", "assay_type": "functional", "parameters": "scale not given: the % may be the effect or the level left"}, "Fasciola hepatica [6]": {"tested_on": "Fasciola hepatica", "assay": "Effect on Fasciola hepatica infected Wistar rat assessed as infection cured rats at 800 mg/kg, po relative to control", "assay_type": "functional, organism-based", "parameters": "dose 800 mg/kg"}, "Schistosoma mansoni [7]": {"tested_on": "Schistosoma mansoni", "assay": "Reduction of total worm burden in Schistosoma mansoni Liberian infection NMRI mouse at 800 mg/kg, po relative to control", "assay_type": "functional", "parameters": "scale not given: the % may be the effect or the level left"}, "Schistosoma mansoni [8]": {"tested_on": "Schistosoma mansoni", "assay": "Reduction of female worm burden in Schistosoma mansoni Liberian infected NMRI mouse at 800 mg/kg, po relative to control", "assay_type": "functional", "parameters": "scale not given: the % may be the effect or the level left"}, "Schistosoma mansoni [9]": {"tested_on": "Schistosoma mansoni", "assay": "Effect on Schistosoma mansoni Liberian infected NMRI mouse assessed as infection cured mice at 400 mg/kg, po relative to control"}}, "note": "The source made the active and inactive calls. No cut-off for these calls is given here.", "data": [{"compound": "C/C(=N/c1ccc(/N=C/c2ccc(/C=N/c3ccc(/N=C(/C)N(C)C)cc3)cc2)cc1)N(C)C", "note": "[TRIBENDIMIDINE]", "values": [{"measurement": "Activity", "setting": "[1]", "value": 99.1, "unit": "%"}, {"measurement": "Activity", "setting": "[2]", "value": 68.9, "unit": "%"}, {"measurement": "Activity", "setting": "[3]", "value": 95.7, "unit": "%"}, {"measurement": "Activity", "setting": "[4]", "value": 61.4, "unit": "%"}, {"measurement": "Activity", "setting": "Fasciola hepatica [5]", "value": 0, "unit": "%"}, {"measurement": "Activity", "setting": "Fasciola hepatica [6]", "value": "Active"}, {"measurement": "Activity", "setting": "Schistosoma mansoni [7]", "value": 0, "unit": "%"}, {"measurement": "Activity", "setting": "Schistosoma mansoni [8]", "value": 0, "unit": "%"}, {"measurement": "Activity", "setting": "Schistosoma mansoni [9]", "value": "Active"}]}]}
